The results in this text go back to patent US8436015B2, “Glucagon receptor antagonist compounds, compositions containing such compounds and methods of use” (Merck Sharp & Dohme Corp., priority 2008, dated 2013).

Broadly, the IC50 is the point on the concentration scale where inhibition reaches its midpoint. A high value points to a need for much substance.

This assay concerns the target T1, human glucagon receptor (Homo sapiens, UniProt P47871).
T1 construct: expressed in transfected cells; cell membranes used
Description: Glucagon Receptor Binding Assay. The following applies: more active isomer of indicated compounds; 125I-glucagon displacement, membranes of CHO cells expressing cloned human glucagon receptor. The protocol:
A stable CHO (Chinese hamster ovary) cell line expressing cloned human glucagon receptor was maintained as described (Chicchi et al. J Biol Chem 272, 7765-9 (1997); Cascieri et al. J Biol Chem 274, 8694-7 (1999)). […] After 4-12 hours incubation at room temperature, the radioactivity bound to the cell membranes was determined in a radioactive emission detection counter (Wallac-Microbeta). Data was analyzed using the software program Prism from GraphPad. The IC50 values were calculated using non-linear regression analysis assuming single site competition.

T1 sequence (P47871 26-477): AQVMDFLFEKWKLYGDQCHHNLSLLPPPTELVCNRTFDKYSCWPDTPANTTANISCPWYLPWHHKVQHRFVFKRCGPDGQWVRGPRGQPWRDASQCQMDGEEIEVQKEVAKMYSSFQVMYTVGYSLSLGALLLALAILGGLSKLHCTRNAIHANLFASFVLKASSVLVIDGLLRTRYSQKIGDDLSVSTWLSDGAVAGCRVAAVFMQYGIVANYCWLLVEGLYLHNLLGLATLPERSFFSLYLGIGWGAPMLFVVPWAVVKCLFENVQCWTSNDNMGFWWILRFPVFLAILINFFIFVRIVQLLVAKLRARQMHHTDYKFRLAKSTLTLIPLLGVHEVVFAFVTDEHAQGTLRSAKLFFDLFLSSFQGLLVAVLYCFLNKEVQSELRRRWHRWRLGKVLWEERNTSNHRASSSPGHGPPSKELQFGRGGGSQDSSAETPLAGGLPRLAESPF

`CCC[C@H](c1ccc(C(=O)NCCC(=O)O)cc1)C(c1ccc(Cl)cc1)c1ccnc2c(C)cc(Cl)cc12` (single isomer, unassigned) [Example 1] registered an IC50 of 1 nM.

Regarding `CCC[C@H](c1ccc(C(=O)NCCC(=O)O)cc1)C(c1ccc(Cl)cc1)c1cccc2nc(OC)ccc12` (single isomer, unassigned) [Example 2], the IC50 was determined as 0.5 nM.

With `CCC[C@H](c1ccc(C(=O)NCCC(=O)O)cc1)C(c1ccc(Cl)cc1)c1cnc2cc(C(F)(F)F)ccc2c1` (single isomer, unassigned) [Example 3], the concentration for half-maximal inhibition (IC50) was determined as 5 nM.

`CCC[C@H](c1ccc(C(=O)NCCC(=O)O)cc1)C(c1ccc(Cl)cc1)c1ccnc2cc(F)c(F)cc12` (single isomer, unassigned) [Example 157]: the IC50 came to 0.3 nM.

In turn, `CCC[C@H](c1ccc(C(=O)NCCC(=O)O)cc1)C(c1ccc(Cl)cc1)c1ncnc2c(F)cc(C)cc12` (single isomer, unassigned) [Example 173] showed an IC50 of 1.4 nM.

`CCCC(c1ccc(C(=O)NCCC(=O)O)cc1)C(c1ccc(Cl)cc1)c1nc(CC)c2cc(OC)ccc2n1` (single isomer, unassigned) [Example 174, N-(4-{1-[(4-Chlorophenyl)(4-Ethyl-6-Methoxyquinazolin-2-Yl)Methyl]Butyl}Benzoyl)-β-Alanine] had a 50% inhibitory concentration (IC50) of 1.7 nM.

In the case of `CCCC(c1ccc(C(=O)NCCC(=O)O)cc1)C(c1ccc(Cl)cc1)c1ccnc2cc(Cl)ccc12` (stereo not drawn) [Example 7], the IC50 was determined as 0.5 nM.

Compound `CCCC(c1ccc(C(=O)NCCC(=O)O)cc1)C(c1ccc(Cl)cc1)c1ccnc2c(Cl)cc(OC)cc12` (stereo not drawn) [Example 10] registered a concentration for half-maximal inhibition (IC50) of 0.6 nM.

`CCCC(c1ccc(C(=O)NCCC(=O)O)cc1)C(c1ccc(Cl)cc1)c1cc(C)nc2ccc(Cl)cc12` (stereo not drawn) [Example 23]: the IC50 came to 1.4 nM.

In turn, `CCCC(c1ccc(C(=O)NCCC(=O)O)cc1)C(c1ccc(Cl)cc1)c1ccnc2cc(OC(F)(F)F)ccc12` (stereo not drawn) [Example 24] displayed an IC50 of 0.1 nM.

On to `CCCC(c1ccc(C(=O)NCCC(=O)O)cc1)C(c1ccc(Cl)cc1)c1ccnc2c(C)cc(F)cc12` (stereo not drawn) [Example 35], for which the half-inhibitory concentration (IC50) was found to be 0.8 nM.

Compound `CCCC(c1ccc(C(=O)NCCC(=O)O)cc1)C(c1ccc(Cl)cc1)c1cc(C)nc2cc(Cl)ccc12` (stereo not drawn) [Example 37] gave a concentration for half-maximal inhibition (IC50) of 0.4 nM.

In turn, `CCCC(c1ccc(C(=O)NCCC(=O)O)cc1)C(c1ccc(Cl)cc1)c1ccnc2cc(C)c(Cl)cc12` (stereo not drawn) [Example 50] displayed an IC50 of 0.5 nM.

Compound `CCCC(c1ccc(C(=O)NCCC(=O)O)cc1)C(c1ccc(Cl)cc1)c1ccnc2c(C)cc(OC(F)(F)F)cc12` (stereo not drawn) [Example 52] showed a half-inhibitory concentration (IC50) of 1.1 nM.

Take `O=C(O)CCNC(=O)c1ccc(C(CCC(F)(F)F)C(c2ccc(Cl)cc2)c2ccnc3cc(Cl)ccc23)cc1` (stereo not drawn) [Example 55]: the IC50 came out at 0.2 nM.

Consider `CCCC(c1ccc(C(=O)NCCC(=O)O)cc1)C(c1ccc(OC(F)(F)F)cc1)c1ccnc2cc(F)ccc12` (stereo not drawn) [Example 62], for which the IC50 was determined as 0.2 nM.

Turning to `CCCC(c1ccc(C(=O)NCCC(=O)O)cc1)C(c1ccc(Cl)cc1)c1ccnc2c(F)c(C)c(F)cc12` (stereo not drawn) [Example 72], the IC50 came to 0.2 nM.

Take `Cc1cc2nccc(C(c3ccc(Cl)cc3)C(CCC(F)(F)F)c3ccc(C(=O)NCCC(=O)O)cc3)c2cc1F` (stereo not drawn) [Example 77]: the 50% inhibitory concentration (IC50) came to 0.2 nM.

`CCCC(c1ccc(C(=O)NCCC(=O)O)cc1)C(c1ccc(Cl)c(Cl)c1)c1ccnc2c(C)cc(Cl)cc12` (stereo not drawn) [Example 84]: the half-inhibitory concentration (IC50) stood at 0.3 nM.

The compound `CCCC(c1ccc(C(=O)NCCC(=O)O)cc1)C(c1ccc(Cl)cc1)c1cccc2nc(OC3CCC3)ccc12` (stereo not drawn) [Example 108] showed an IC50 of 0.4 nM.

In turn, `CCCC(c1ccc(C(=O)NCCC(=O)O)cc1)C(c1ccc(Cl)cc1)c1cccc2nc(OCCOC)ccc12` (stereo not drawn) [Example 112] registered a concentration for half-maximal inhibition (IC50) of 0.9 nM.

`CCC(c1ccc(C(=O)NCCC(=O)O)cc1)C(c1ccc(OC(F)(F)F)cc1)c1cccc2nc(OC)ccc12` (stereo not drawn) [Example 115] yielded a 50% inhibitory concentration (IC50) of 0.3 nM.

In turn, `CCCC(c1ccc(C(=O)NCCC(=O)O)cc1)C(c1ccc(Cl)cc1)c1ccc2nc(OC)ccc2c1` (stereo not drawn) [Example 120] returned a 50% inhibitory concentration (IC50) of 1.8 nM.

`CCCC(c1ccc(C(=O)NCCC(=O)O)cc1)C(c1ccc(Cl)cc1)c1cncc2c(Cl)cccc12` (stereo not drawn) [Example 131] registered a concentration for half-maximal inhibition (IC50) of 0.5 nM.

On to `O=C(O)CCNC(=O)c1ccc(C(CCC(F)(F)F)C(c2ccc(Cl)cc2)c2cncc3cc(Cl)ccc23)cc1` (stereo not drawn) [Example 138], for which the half-maximal inhibitory concentration (IC50) is 0.4 nM.

Consider `CCCC(c1ccc(C(=O)NCCC(=O)O)cc1)C(c1ccc(OC(F)(F)F)cc1)c1cncc2cc(Cl)ccc12` (stereo not drawn) [Example 139], for which the IC50 was determined as 0.3 nM.

In turn, `CCCC(c1ccc(C(=O)NCCC(=O)O)cc1)C(c1ccc(Cl)cc1)c1cccc2ccc(OC)nc12` (stereo not drawn) [Example 146] gave an IC50 of 12 nM.

Consider `CCCC(c1ccc(C(=O)NCCC(=O)O)cc1)C(c1cccc(Cl)c1)c1ccnc2cc(F)c(F)cc12` (stereo not drawn) [Example 159], for which the IC50 worked out at 0.6 nM.

`CCC[C@H](c1ccc(C(=O)NCCC(=O)O)cc1)C(c1ccc(Cl)cc1)c1cccc2nc(-c3ccn[nH]3)ccc12` (stereo partly drawn) [Example 171, N-(4-{(1S)-1-[(4-Chlorophenyl)(2-(1H-Pyrazol-5-Yl)Quinolin-5-Yl)Methyl]Butyl}Benzoyl)-β-Alanine]: the IC50 turned out to be 18 nM.

Regarding `CCCC(c1ccc(C(=O)NCCC(=O)O)cc1)C(c1ccc(Cl)cc1)c1nc(C2CCCCC2)c2ccc(C(F)(F)F)cc2n1` (stereo not drawn) [Example 179], the concentration for half-maximal inhibition (IC50) is 4.5 nM.
